Test results as given in patent US7745390B2, “Antimicrobial peptides” (priority 2005, dated 2010).
Square brackets hold non-standard residues; d marks the D form. Ends that are not written are not given here. Peptide text beside a SMILES is read from it.

Experiments:
B. cereus = format: cell-based; conditions: pH 7.2
Method: (§1) The experiments described above characterizing the activity of granulysin peptides G1-G18 relied on counting bacterial colonies on plates. This assay is quite labor intensive and would not allow evaluation of many different compounds on a number of different microbes. Therefore, we optimized an assay in which the entire procedure could be completed in a single microtiter well. Briefly, peptides are diluted in 10 mM phosphate buffer, pH 7.2 supplemented with 0.03% LB (J. Sambrook, D. W. Russell, Molecular Cloning: A Laboratory Manual (Cold Spring Harbor Laboratory Press, New York, ed. 3, 2001) pg. A2.2, Retrieved from http://openwetware.org/wiki/LB) and 25 μl is added to microtiter wells. Bacteria (25 μl) are added (˜5×10^6 colony forming units/ml) in the same buffer. After a 3-hour incubation at 37° C., 150 μl of LB is added and the plates are incubated overnight. The OD at 600 nm is read on an ELISA plate reader. The minimum inhibitory concentration (MIC) is the lowest concentration allowing no bacterial growth. The IC50 is the concentration of peptide that results in 50% growth compared to the medium.
(§2) We now describe additional peptides and their activity. The peptides have been designed, synthesized, and have been tested for lysis of E. coli and S. typhimurium (gram negative bacteria), B. cereus (gram positive bacterium). Results are shown in Table 2 along with the amino acid sequence of the peptide. Changes from the naturally occurring sequence are underlined. In general, the desired result is lysis of bacteria at low concentration (<1 μM).
(§3) In Table 2, Columns 2-7 are the MIC and IC50 (concentration required for 50% inhibition of growth) for each organism (E. coli, Salmonella, and B. cereus). The MIC (minimum inhibitory concentration) was determined as described above, in a multiwell plate assay. […] L-isomer amino acids are designated by capital letters while D-isomer amino acids are designated by lower case letters.

E. coli DH5a = format: cell-based; conditions: DH5a, pH 7.2
Method: as §1, §2, §3

Salmonella = format: cell-based, S. typhimurium; conditions: pH 7.2
Method: as §1, §2, §3

Molecule | B. cereus MIC (B. cereus) [µM] | IC50 (B. cereus) [nM] | E. coli DH5a MIC (E. coli DH5a) [µM] | IC50 (E. coli DH5a) [nM] | IC50 (Salmonella) [nM] | Salmonella MIC (Salmonella) [µM]
CSCC[C@@H](NC(=O)[C@@H](Cc1ccccc1)NC(=O)[C@@H](CCCCN)NC(=O)[C@@H](CCCCN)NC(=O)[C@@H](CO)NC(=O)[C@H](NC(=O)[C@@H](CCCCN)NC(=O)[C@@H](CCCCN)NC(=O)[C@@H](CO)NC(=O)CNC(=O)[C@@H](CCCCN)NC(=O)[C@@H](CCCCN)NC(=O)[C@@H](CCSC)NC(=O)[C@@H](Cc1ccccc1)NC(=O)[C@@H](CCCCN)NC(=O)[C@@H](CCCCN)NC(=O)[C@@H](CO)NC(=O)[C@H](NC(=O)[C@@H](CCCCN)NC(=O)[C@H](N)CCCCN)C(C)C)C(C)C)C(=O)N[C@H](CCCCN)C(=O)N[C@H](CCCCN)C(=O)O [Peptide G11.54, kkvskkfmkkgskkvskkfmkk] | 0.35 | 210 | >10 | 8250 | > 10000 | >10
QRRSSRFMRRYQRVVPRGLV [Peptide G12.24] | 0.8 | 420 | 0.8 | 420 | 700 | 1.4
RRVVRRLLRR [Peptide G11.19, RRVVRRLLRR] | 6.65 | 3410 | >10 | 7450 | 7690 | >10
QRSVSRAATRVSRTGRSRW [Peptide G13.2, QRSVSRAATRVSRTGRSRW] | 5.6 | 3400 | 1.37 | 850 | 7300 | >10
QRSVSRAATRVSRTGRSRWRDVSRNFMRR [Peptide G8.2] | 1.39 | 510 | 1.4 | 580 | 550 | 1.4
CSCC[C@H](NC(=O)[C@H](Cc1ccccc1)NC(=O)[C@H](CCCNC(=N)N)NC(=O)[C@H](CCCNC(=N)N)NC(=O)[C@H](CO)NC(=O)[C@@H](NC(=O)[C@@H](CC(=O)O)NC(=O)[C@@H](CCCNC(=N)N)NC(=O)[C@H](Cc1c[nH]c2ccccc12)NC(=O)[C@H](CCCNC(=N)N)NC(=O)[C@H](CO)NC(=O)[C@H](CCCNC(=N)N)NC(=O)CN)C(C)C)C(=O)N[C@@H](CCCNC(=N)N)C(=O)N[C@@H](CCCNC(=N)N)C(=O)O [Peptide G14.10, GRSRWrdVSRRFMRR] (H-GRSRW[dR][dD]VSRRFMRR-OH; N-terminus and C-terminus assumed) | 2.8 | 1750 | 1.25 | 450 | 890 | 1.4
FDTPRRVSRRFMRRLGH [Peptide G11.43, FDTPRRVSRRFMRRLGH] | 0.75 | 210 | 0.75 | 420 | 3000 | >10
CSCC[C@H](NC(=O)[C@H](Cc1ccccc1)NC(=O)[C@@H](CCCNC(=N)N)NC(=O)[C@@H](CCCNC(=N)N)NC(=O)[C@H](CO)NC(=O)[C@H](NC(=O)[C@@H](CCCNC(=N)N)NC(=O)[C@@H](N)CCCNC(=N)N)C(C)C)C(=O)N[C@H](CCCNC(=N)N)C(=O)N[C@@H](CCCNC(=N)N)C(=O)N[C@@H](CC(=O)O)C(N)=O [Peptide G11.45, RrvSrrFMrRD] (H-R[dR][dV]S[dR][dR]FM[dR]RD-NH2; N-terminus assumed) | >10 | > 10000 | >10 | > 10000 | > 10000 | >10
RRVSRRFMRRGSRRVSRRFMRR [Peptide G11.7] | 0.35 | 210 | 0.35 | 210 | 210 | 0.35
RDVSRRFMRRRDVSRRFMRR [Peptide G11.39] | 0.7 | 450 | 0.7 | 220 | 1700 | 2.75
QRSVSNAATRVCRT [Peptide G10, QRSVSNAATRVCRT, reference compound] | >10 | > 10000 | >10 | > 10000 | > 10000 | >10
RDVARRFMRRQSRVISRLV [Peptide G12.15, RDVARRFMRRQSRVISRLV] | 2.8 | 1750 | 1.4 | 890 | 420 | 0.69
QRSVSNPPTRVSRPPRSRWRDVSRPPMRR [Peptide G8.16] | >10 | 7300 | 0.7 | 400 | > 10000 | >10
WRDVSRNFMRRGRSRGWRDVSRNFMRR [Peptide G11.36] | 0.7 | 410 | 0.7 | 450 | 890 | 1.38
QKSVSKAATKVSKTGKSKW [Peptide G13.9, QKSVSKAATKVSKTGKSKW] | >10 | 7700 | 1.45 | 890 | > 10000 | >10
RRVSRRFMRRYQSRVPQGLV [Peptide G12.10] | 1.4 | 890 | 0.7 | 450 | 850 | 1.4
QRSVSRAATRVSRTGRSNWRDVGRRFMRR [Peptide G8.15] | 0.7 | 450 | 0.8 | 450 | 410 | 0.7
QRSVSRPPTRVSRTGRARW [Peptide G13.12, QRSVSRPPTRVSRTGRARW] | >10 | > 10000 | 5.65 | 1750 | > 10000 | >10
RRVSRRFMRRGSRRVSRRFMRRGSRRVSRRFMRR [Peptide G11.10] | 0.35 | 210 | 0.35 | 210 | 210 | 0.35
QRAVARAATRVARTGRARWRRVARRFMRR [Peptide G8.10] | 0.75 | 450 | 0.63 | 450 | 210 | 0.35
RRVSRRFMRR [Peptide G11.3, RRVSRRFMRR] | >10 | 7700 | 2.85 | 1760 | > 10000 | >10
GRSLWRDVSRNFMRR [Peptide G14.13, GRSLWRDVSRNFMRR] | >10 | > 10000 | 5.6 | 1850 | 7600 | >10
QRAVARAATRVARTGRARWRDVARNFMRR [Peptide G8.5] | 1.4 | 880 | 1.4 | 880 | 420 | 0.7
